Data: article PMC9776540, “Therapeutic Potential of a Water-Soluble Silver-Diclofenac Coordination Polymer on 3D Pancreatic Cancer Spheroids” (Journal of Medicinal Chemistry, 2022)
Structures can show the parent of a compound that is named as a salt.

Tests used:
A549 [1] = test: MTT cytotoxicity assay (IC50); assay type: cell-based, human; conditions: Homo sapiens; A549, after 72 h incubation, MTT, vs untreated control cells; read-out: IC50
Method: (§1) MCF7 cell line (human breast adenocarcinoma, morphology: epithelial-like, ATCC: HTB-22), A549 cell […]
(§2) keratinocyte, morphology: epidermal, CSL Cell Lines Service GmbH); were cultured in Dulbecco’s Modified Eagle’s Medium (DMEM, Corning) with phenol red, supplemented with 10% fetal bovine serum (FBS) and with 1% streptomycin/penicillin. […]
(§3) from metastatic site: brain, ATCC: HTB-81) and MCR-5 cell line (primary line of human pulmonary […]
(§4) 10% fetal bovine serum (FBS). Cultures were incubated at 37 °C under a humidified atmosphere containing 5% CO2. Cells were transferred using a solution containing 0.05% trypsin and 0.5 mM EDTA.
(§5) All media and other ingredients were purchased from ALAB, Poland.
(§6) Cytotoxicity was assessed by MTT assay performed according the protocols described elsewhere.S1 In brief, 1×10^4 cells per well, seeded in 96-well flat bottom microtiter plate, were incubated with the tested compounds (in the appropriate media) at various range of concentrations for 24 h. After that time, solutions of compounds were washed out, cells were washed three times with PBS and fresh medium was applied. After next 72 h cell viability was determined using the Hill equation (Origin 9.0) with regard to the untreated cells (control), where y0 – untreated cell control (which was set to 100% viability), y100 – a lysis control (where the cells were treated with 0.5% triton X-100 was set to 0% […]
(§7) [c] at which the viability of the cells reaches 50%, H – the Hill coefficient (describing cooperativity):
(§8) Each compound concentration was tested in five replicates and repeated at least three times.
(§9) Determined values of IC50 are given as mean + S.D. (Standard Deviation).
(§10) Cisplatin was tested as a reference anticancer drug. […]

DU-145 [2] = test: MTT cytotoxicity assay (IC50); assay type: cell-based, human; conditions: Homo sapiens; DU-145, after 72 h incubation, MTT, vs untreated control cells; read-out: IC50
Method: as §1, §2, §3, §4, §5, §6, §7, §8, §9, §10

HaCat [3] = test: MTT cytotoxicity assay (IC50); assay type: cell-based, human; conditions: Homo sapiens; HaCat normal cells, after 72 h incubation, MTT, vs untreated control cells; read-out: IC50
Method: as §1, §2, §3, §4, §5, §6, §7, §8, §9, §10

MCF7 = test: MTT cytotoxicity assay (IC50); assay type: cell-based, human; conditions: Homo sapiens; MCF7, after 72 h incubation, MTT, vs untreated control cells; read-out: IC50
Method: as §1, §2, §3, §4, §5, §6, §7, §8, §9, §10

MRC5 = test: MTT cytotoxicity assay (IC50); assay type: cell-based, human; conditions: Homo sapiens; MRC5 normal cells, after 72 h incubation, MTT, vs untreated control cells; read-out: IC50
Method: as §1, §2, §3, §4, §5, §6, §7, §8, §9, §10

PANC-1 [4] = test: MTT cytotoxicity assay (IC50); assay type: cell-based, human; conditions: Homo sapiens; PANC-1, after 72 h incubation, MTT, vs untreated control cells; read-out: IC50
Method: as §1, §2, §3, §4, §5, §6, §7, §8, §9, §10

A549 [5] = test: MTT survival test, surviving fraction (Table S3); assay type: cell-based, human
Method: (§11) 24, and 72 h. After each incubation time, the cells were washed with PBS. Then, fresh medium (supplemented with 10% FSB) was added, and the cells were incubated under standard conditions for another 24 h (6h + 24h, 24h + 24h, 72h + 24h). After this time, the MTT survival test was done. Surviving fraction given in % was estimated with relation to untreated cells. In the case of 6h + 24h and 24h + 24h approaches, the cells were seeded at 10 000 cells per well, while in the case of 72h + 24h at […]

DU-145 [6] = test: MTT survival test, surviving fraction (Table S3); assay type: cell-based, human
Method: as §11

HaCat [7] = test: MTT survival test, surviving fraction (Table S3); assay type: cell-based, human
Method: as §11

MCF-7 = test: MTT survival test, surviving fraction (Table S3); assay type: cell-based, human
Method: as §11

PANC-1 [8] = test: MTT survival test, surviving fraction (Table S3); assay type: cell-based, human
Method: as §11

PANC-1 cells = conditions: PANC-1, 1 at IC50, others at molar ratio 1:1:1, 72 h after treatment
Method: as §1, §2, §3, §4
All media and other ingredients were purchased from ALAB, Poland. […]
Acridine Orange (OA) and Propidium Iodide PI Staining
AO is a nucleic acid-binding fluorophore that is cell membrane permeable and suitable for selective staining of nucleated living cells. PI is a nucleic acid-binding dye that is impermeable to live cells and suitable for staining dead or dying nucleated cells. All live, nucleated cells fluoresce green due to AO, and dead, nucleated cells are stained with both AO and PI and fluoresce red. For analysis of 1-induced

pBR322 plasmid = test: DNA strand break analysis, agarose gel electrophoresis; assay type: biochemical; conditions: pBR322, 24 h, even at high concentration (500 μM)
Method: Then, the interaction between DNA and diclofenac, PTA, or 1 was evaluated by the gel electrophoresis of pBR322 plasmid to determine an ability to cause double- and/or single-strand DNA damages (Figure 6D). The double-strand damage may result in the appearance of different forms of DNA (linear form III and relaxed form II), which can be quantified by densitometry analysis (Figure 6E).
DNA Strand Break Analysis
The ability of 1, PTA and diclofenac to induce single- or double-strand breaks in plasmid DNA was tested
with the pBR322 plasmid (c = 0.5 mg/mL). All compounds were dissolved in water (c = 1 µM-500 µM).
After 1 h incubation at 37 °C, the reaction mixtures (20 μL) were mixed with 3 μL of loading buffer
(bromophenol blue in 30% glycerol) and loaded on 1% agarose gels, containing EB, in TBE buffer (90
mM Tris–borate, 20 mM EDTA, pH = 8.0). Gel electrophoresis was performed at a constant voltage of
100 V (4 V/cm) for 60 min. The gel was photographed and processed with a Digital Imaging System
(Syngen Biotech). For the densitometric analysis the UltraQuant 6.0 program was used.

[9] = comparison values, no method or reference printed at the place; cited from earlier work

Compound: O=C(O)Cc1ccccc1Nc1c(Cl)cccc1Cl [NaDf, diclofenac sodium salt]
- IC50 (A549 [1]): 699 ± 7.1 µM
- IC50 (DU-145 [2]): 803 ± 14.7 µM
- IC50 (HaCat [3]): 1140 ± 18.3 µM
- IC50 (MCF7): 978 ± 10.4 µM
- IC50 (MRC5): 977.3 ± 5.9 µM
- IC50 (PANC-1 [4]): 801 ± 124 µM
- surviving fraction (A549 [5]; A549, 6h + 24h, dil. 10 000x (stocks: diclofenac 0.918, PTA 0.483, AgNO3 0.326 mg/mL)): 99.7 ± 4.3%
- surviving fraction (A549 [5]; A549, 6h + 24h, dil. 100x (stocks: diclofenac 0.918, PTA 0.483, AgNO3 0.326 mg/mL)): 72.5 ± 6.8%
- surviving fraction (A549 [5]; A549, 6h + 24h, dil. 1000x (stocks: diclofenac 0.918, PTA 0.483, AgNO3 0.326 mg/mL)): 88.7 ± 10.8%
- surviving fraction (A549 [5]; A549, 24h + 24h, dil. 10 000x (stocks: diclofenac 0.918, PTA 0.483, AgNO3 0.326 mg/mL)): 98.5 ± 10.9%
- surviving fraction (A549 [5]; A549, 24h + 24h, dil. 100x (stocks: diclofenac 0.918, PTA 0.483, AgNO3 0.326 mg/mL)): 70.9 ± 8.9%
- surviving fraction (A549 [5]; A549, 24h + 24h, dil. 1000x (stocks: diclofenac 0.918, PTA 0.483, AgNO3 0.326 mg/mL)): 81.8 ± 6.8%
- surviving fraction (A549 [5]; A549, 72h + 24h, dil. 10 000x (stocks: diclofenac 0.918, PTA 0.483, AgNO3 0.326 mg/mL)): 89.5 ± 8.2%
- surviving fraction (A549 [5]; A549, 72h + 24h, dil. 100x (stocks: diclofenac 0.918, PTA 0.483, AgNO3 0.326 mg/mL)): 67.7 ± 6.5%
- surviving fraction (A549 [5]; A549, 72h + 24h, dil. 1000x (stocks: diclofenac 0.918, PTA 0.483, AgNO3 0.326 mg/mL)): 78.5 ± 7.6%
- surviving fraction (DU-145 [6]; Du-145, 6h + 24h, dil. 10 000x (stocks: diclofenac 0.918, PTA 0.483, AgNO3 0.326 mg/mL)): 99.5 ± 8.2%
- surviving fraction (DU-145 [6]; Du-145, 6h + 24h, dil. 100x (stocks: diclofenac 0.918, PTA 0.483, AgNO3 0.326 mg/mL)): 78.2 ± 5.6%
- surviving fraction (DU-145 [6]; Du-145, 6h + 24h, dil. 1000x (stocks: diclofenac 0.918, PTA 0.483, AgNO3 0.326 mg/mL)): 87.7 ± 9.8%
- surviving fraction (DU-145 [6]; Du-145, 24h + 24h, dil. 10 000x (stocks: diclofenac 0.918, PTA 0.483, AgNO3 0.326 mg/mL)): 99.5 ± 10.7%
- surviving fraction (DU-145 [6]; Du-145, 24h + 24h, dil. 100x (stocks: diclofenac 0.918, PTA 0.483, AgNO3 0.326 mg/mL)): 78.7 ± 7.6%
- surviving fraction (DU-145 [6]; Du-145, 24h + 24h, dil. 1000x (stocks: diclofenac 0.918, PTA 0.483, AgNO3 0.326 mg/mL)): 88.4 ± 6.7%
- surviving fraction (DU-145 [6]; Du-145, 72h + 24h, dil. 10 000x (stocks: diclofenac 0.918, PTA 0.483, AgNO3 0.326 mg/mL)): 88.7 ± 6.1%
- surviving fraction (DU-145 [6]; Du-145, 72h + 24h, dil. 100x (stocks: diclofenac 0.918, PTA 0.483, AgNO3 0.326 mg/mL)): 70.8 ± 7.9%
- surviving fraction (DU-145 [6]; Du-145, 72h + 24h, dil. 1000x (stocks: diclofenac 0.918, PTA 0.483, AgNO3 0.326 mg/mL)): 71.4 ± 8.5%
- surviving fraction (HaCat [7]; 6h + 24h, dil. 10 000x (stocks: diclofenac 0.918, PTA 0.483, AgNO3 0.326 mg/mL)): 99.6 ± 10.8%
- surviving fraction (HaCat [7]; 6h + 24h, dil. 100x (stocks: diclofenac 0.918, PTA 0.483, AgNO3 0.326 mg/mL)): 86.5 ± 11.7%
- surviving fraction (HaCat [7]; 6h + 24h, dil. 1000x (stocks: diclofenac 0.918, PTA 0.483, AgNO3 0.326 mg/mL)): 92.5 ± 9.1%
- surviving fraction (HaCat [7]; 24h + 24h, dil. 10 000x (stocks: diclofenac 0.918, PTA 0.483, AgNO3 0.326 mg/mL)): 99.3 ± 12.8%
- surviving fraction (HaCat [7]; 24h + 24h, dil. 100x (stocks: diclofenac 0.918, PTA 0.483, AgNO3 0.326 mg/mL)): 88.8 ± 5.8%
- surviving fraction (HaCat [7]; 24h + 24h, dil. 1000x (stocks: diclofenac 0.918, PTA 0.483, AgNO3 0.326 mg/mL)): 99.2 ± 6.8%
- surviving fraction (HaCat [7]; 72h + 24h, dil. 10 000x (stocks: diclofenac 0.918, PTA 0.483, AgNO3 0.326 mg/mL)): 102.3 ± 11.2%
- surviving fraction (HaCat [7]; 72h + 24h, dil. 100x (stocks: diclofenac 0.918, PTA 0.483, AgNO3 0.326 mg/mL)): 88.4 ± 5.2%
- surviving fraction (HaCat [7]; 72h + 24h, dil. 1000x (stocks: diclofenac 0.918, PTA 0.483, AgNO3 0.326 mg/mL)): 99.2 ± 5.9%
- surviving fraction (MCF-7; MCF-7, 6h + 24h, dil. 10 000x (stocks: diclofenac 0.918, PTA 0.483, AgNO3 0.326 mg/mL)): 102.6 ± 13.4%
- surviving fraction (MCF-7; MCF-7, 6h + 24h, dil. 100x (stocks: diclofenac 0.918, PTA 0.483, AgNO3 0.326 mg/mL)): 78.6 ± 12.3%
- surviving fraction (MCF-7; MCF-7, 6h + 24h, dil. 1000x (stocks: diclofenac 0.918, PTA 0.483, AgNO3 0.326 mg/mL)): 89.5 ± 9.8%
- surviving fraction (MCF-7; MCF-7, 24h + 24h, dil. 10 000x (stocks: diclofenac 0.918, PTA 0.483, AgNO3 0.326 mg/mL)): 98.2 ± 9.8%
- surviving fraction (MCF-7; MCF-7, 24h + 24h, dil. 1000x (stocks: diclofenac 0.918, PTA 0.483, AgNO3 0.326 mg/mL)): 88.7 ± 10.6%
- surviving fraction (MCF-7; MCF-7, 72h + 24h, dil. 10 000x (stocks: diclofenac 0.918, PTA 0.483, AgNO3 0.326 mg/mL)): 97.8 ± 7.7%
- surviving fraction (MCF-7; MCF-7, 72h + 24h, dil. 1000x (stocks: diclofenac 0.918, PTA 0.483, AgNO3 0.326 mg/mL)): 85.4 ± 5.3%
- surviving fraction (PANC-1 [8]; PANC-1, 6h + 24h, dil. 10 000x (stocks: diclofenac 0.918, PTA 0.483, AgNO3 0.326 mg/mL)): 98.6 ± 7.8%
- surviving fraction (PANC-1 [8]; PANC-1, 6h + 24h, dil. 100x (stocks: diclofenac 0.918, PTA 0.483, AgNO3 0.326 mg/mL)): 75.3 ± 6.4%
- surviving fraction (PANC-1 [8]; PANC-1, 6h + 24h, dil. 1000x (stocks: diclofenac 0.918, PTA 0.483, AgNO3 0.326 mg/mL)): 84.5 ± 9.8%
- surviving fraction (PANC-1 [8]; PANC-1, 24h + 24h, dil. 10 000x (stocks: diclofenac 0.918, PTA 0.483, AgNO3 0.326 mg/mL)): 89.5 ± 9.9%
- surviving fraction (PANC-1 [8]; PANC-1, 24h + 24h, dil. 100x (stocks: diclofenac 0.918, PTA 0.483, AgNO3 0.326 mg/mL)): 71.2 ± 6.5%
- surviving fraction (PANC-1 [8]; PANC-1, 24h + 24h, dil. 1000x (stocks: diclofenac 0.918, PTA 0.483, AgNO3 0.326 mg/mL)): 82.4 ± 7.7%
- surviving fraction (PANC-1 [8]; PANC-1, 72h + 24h, dil. 10 000x (stocks: diclofenac 0.918, PTA 0.483, AgNO3 0.326 mg/mL)): 89.4 ± 6.3%
- surviving fraction (PANC-1 [8]; PANC-1, 72h + 24h, dil. 100x (stocks: diclofenac 0.918, PTA 0.483, AgNO3 0.326 mg/mL)): 68.5 ± 6.9%
- surviving fraction (PANC-1 [8]; PANC-1, 72h + 24h, dil. 1000x (stocks: diclofenac 0.918, PTA 0.483, AgNO3 0.326 mg/mL)): 80.3 ± 4.1%
- cytotoxicity seen by AO/PI staining (PANC-1 cells): did not induce visible cytotoxicity
- degradation of plasmid DNA (pBR322 plasmid): no degradation of DNA
- log P [9]: 1.4
